This is an account of results in patent publication US20180194762A1 (Pharmacyclics LLC, priority 2017, published 2018).

What all share (assay type): biochemical
Assay [1] deals with T1, TEC (Homo sapiens, UniProt P42680).
T1 sequence (P42680 1-631): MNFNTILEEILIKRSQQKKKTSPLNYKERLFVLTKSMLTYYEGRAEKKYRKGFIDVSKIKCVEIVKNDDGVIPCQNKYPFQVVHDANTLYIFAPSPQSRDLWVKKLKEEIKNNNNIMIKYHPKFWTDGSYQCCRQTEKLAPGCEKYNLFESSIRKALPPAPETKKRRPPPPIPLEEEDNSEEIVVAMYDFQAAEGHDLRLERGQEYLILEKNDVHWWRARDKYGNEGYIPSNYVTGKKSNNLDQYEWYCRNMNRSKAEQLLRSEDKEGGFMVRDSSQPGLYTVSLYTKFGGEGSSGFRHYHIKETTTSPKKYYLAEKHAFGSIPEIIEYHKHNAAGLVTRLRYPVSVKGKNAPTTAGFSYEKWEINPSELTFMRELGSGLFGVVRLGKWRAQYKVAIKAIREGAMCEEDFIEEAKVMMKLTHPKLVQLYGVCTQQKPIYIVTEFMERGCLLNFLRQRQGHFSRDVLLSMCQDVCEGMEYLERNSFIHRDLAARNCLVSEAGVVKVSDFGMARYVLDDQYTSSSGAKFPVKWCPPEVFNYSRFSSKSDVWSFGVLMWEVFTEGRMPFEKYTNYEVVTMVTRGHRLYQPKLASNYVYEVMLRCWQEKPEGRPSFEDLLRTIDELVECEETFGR
As to the kind of experiment: Inhibition of a panel of kinases (in vitro HotSpot kinase assay, 33P-ATP, 1 μM ATP). Particulars: HotSpot kinase assay, 1 μM ATP. The method in brief: (§1)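 Purified kinase enzymes were incubated with an appropriate substrate and 33P-labelled ATP at 1 μM ATP. Inhibition was measured radiometrically from incorporation of the 33P label.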

The target in assay [2] is T2, Btk (Homo sapiens, UniProt Q06187).
T2 construct: purified from insect cells as a full-length construct containing a N-terminal 6X-His tag; His6 (N); made in house; host or cells: insect cells (Method C)
T2 sequence (Q06187 whole entry): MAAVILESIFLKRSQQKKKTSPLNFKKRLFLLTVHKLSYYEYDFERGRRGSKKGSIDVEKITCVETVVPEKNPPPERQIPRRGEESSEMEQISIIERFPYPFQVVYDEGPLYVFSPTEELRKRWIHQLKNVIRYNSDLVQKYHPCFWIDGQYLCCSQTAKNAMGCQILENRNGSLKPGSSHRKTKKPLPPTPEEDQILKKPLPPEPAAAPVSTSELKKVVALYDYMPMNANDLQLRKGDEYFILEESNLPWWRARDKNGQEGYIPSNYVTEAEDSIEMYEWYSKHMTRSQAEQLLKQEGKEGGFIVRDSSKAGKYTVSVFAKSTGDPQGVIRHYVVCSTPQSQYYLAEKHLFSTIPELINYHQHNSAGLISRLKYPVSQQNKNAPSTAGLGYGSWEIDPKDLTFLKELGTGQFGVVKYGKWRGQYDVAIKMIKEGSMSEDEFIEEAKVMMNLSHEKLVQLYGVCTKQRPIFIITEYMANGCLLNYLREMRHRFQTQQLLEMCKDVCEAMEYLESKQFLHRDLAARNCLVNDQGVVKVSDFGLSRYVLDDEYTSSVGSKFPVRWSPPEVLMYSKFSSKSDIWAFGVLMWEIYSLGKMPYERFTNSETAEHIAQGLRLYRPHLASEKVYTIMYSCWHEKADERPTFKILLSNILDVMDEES
As to the kind of experiment: Btk in vitro inhibitory activity (one of Method A TR-FRET, Method B electrophoretic mobility shift, Method C radiometric filter binding). The settings on record: wild-type Btk; read-out: Btk-WT IC50. An outline of the steps: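 Method A: TR-FRET with 0.5 nM Btk at [ATP]=Km, EDTA-quenched, 665/615 nm ratio; Ki(app) converted to IC50. Method B: 1 nM full-length His6 human BTK, 1 μM FAM peptide, pH 7.5, mobility-shift product/sum ratio, 12-point 4-parameter fit. Method C: radiometric filter binding, 8 nM His-tagged BTK, 0.2 mg/mL poly-Glu-Tyr.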
On the technique in general: In EMSA bound probe runs differently from free probe, usually more slowly.

In assay [3] the target is T3, panel of kinases (Homo sapiens, UniProt P51813).
T3 sequence (P51813 1-675): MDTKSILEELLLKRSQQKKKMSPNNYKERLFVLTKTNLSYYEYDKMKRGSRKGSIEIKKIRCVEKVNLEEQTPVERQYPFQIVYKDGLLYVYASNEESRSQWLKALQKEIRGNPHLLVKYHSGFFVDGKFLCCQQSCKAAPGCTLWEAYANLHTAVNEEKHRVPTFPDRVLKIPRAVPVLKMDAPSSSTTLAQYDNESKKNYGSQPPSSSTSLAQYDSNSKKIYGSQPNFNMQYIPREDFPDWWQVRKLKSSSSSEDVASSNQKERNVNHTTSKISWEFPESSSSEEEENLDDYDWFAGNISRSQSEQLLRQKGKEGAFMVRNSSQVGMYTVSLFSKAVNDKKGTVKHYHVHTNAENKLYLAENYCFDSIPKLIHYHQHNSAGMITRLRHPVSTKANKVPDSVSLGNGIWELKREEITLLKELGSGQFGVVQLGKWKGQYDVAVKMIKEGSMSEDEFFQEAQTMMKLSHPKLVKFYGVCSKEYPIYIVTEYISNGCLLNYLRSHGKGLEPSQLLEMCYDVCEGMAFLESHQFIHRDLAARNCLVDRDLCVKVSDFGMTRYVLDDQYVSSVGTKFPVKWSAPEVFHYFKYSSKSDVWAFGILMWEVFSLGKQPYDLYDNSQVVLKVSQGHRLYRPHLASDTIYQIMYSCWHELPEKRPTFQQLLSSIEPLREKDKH
Nature of the assay: Inhibition of a panel of kinases (in vitro HotSpot kinase assay, 33P-ATP, 1 μM ATP), other kinases. Particulars: BMX wild-type, read-out: BMX-WT IC50. An outline of the steps:
as §1

Consider `CN(C)C(=O)N1CC[C@@H](Nc2n[nH]c3nccc(-c4ccc(CNC(=O)c5coc(C(C)(C)C)n5)c(F)c4)c23)C1` [Example 296, 2-tert-butyl-N-{[4-(3-{[(3R)-1-(dimethylcarbamoyl)pyrroli-din-3-yl]amino}-1H-pyrazolo[3,4-b]pyridin-4-yl)-2-fluorophenyl]methyl}-1,3-oxazole-4-carboxamide], for which the half-maximal inhibitory concentration (IC50) in assay [1] was determined as 1650 nM; in assay [2], 8.97 nM; in assay [3] it was 4690 nM.
The corresponding values for `C=CC(=O)N1CC[C@@H](Nc2n[nH]c3nccc(-c4ccnc(N5CCn6c(cc7c6CC(C)(C)C7)C5=O)c4CO)c23)C1` [Example 298, 2-[3-(hydroxymethyl)-4-(3-{[(3R)-1-(prop-2-enoyl)pyrrolidin-3-yl]amino}-1H-pyrazolo[3,4-b]pyridin-4-yl)pyridin-2-yl]-7,7-dimethyl-3,4,7,8-tetrahydro-2H-cyclopenta[4,5]pyrrolo[1,2-a]pyrazin-1(6H)-one] are 3280 nM, 1.51 nM and 8030 nM.
The corresponding values for `C=CC(=O)N1CC[C@@H](Nc2n[nH]c3nccc(-c4ccc([C@H](C)NC(=O)c5noc(C(C)(C)C)n5)c(F)c4)c23)C1` [Example 303, 5-tert-butyl-N-{(1S)-1-[2-fluoro-4-(3-{[(3R)-1-(prop-2-enoyl)pyrrolidin-3-yl]amino}-1H-pyrazolo[3,4-b]pyridin-4-yl)phenyl]ethyl}-1,2,4-oxadiazole-3-carboxamide] are 239 nM, 1.05 nM and 119 nM.
The corresponding values for `C=CC(=O)N1CCC[C@@H](Nc2n[nH]c3nccc(-c4ccc(CNC(=O)c5cc(CC)on5)c(F)c4)c23)[C@H]1C` [Example 304, 5-ethyl-N-{[2-fluoro-4-(3-{[(2R,3R)-2-methyl-1-(prop-2-enoyl)piperidin-3-yl]amino}-1H-pyrazolo[3,4-b]pyridin-4-yl)phenyl]methyl}-1,2-oxazole-3-carboxamide] are 15.9 nM, 0.908 nM and 4.59 nM.
Regarding `CC(C)(C)c1cc(C(=O)NCc2ccc(-c3ccnc4[nH]nc(N5CC[C@@H](N)C5)c34)cc2F)no1` [Example 307, (R)-N-({4-[3-(3-aminopyrrolidin-1-yl)-1H-pyrazolo[3,4-b]pyridin-4-yl]-2-fluorophenyl}methyl)-5-tert-butyl-1,2-oxazole-3-carboxamide], the IC50 in assay [1] turned out to be 3210 nM; in assay [2], 3.33 nM; in assay [3] it was 1420 nM.
As to `C=CC(=O)N[C@@H]1CCN(c2n[nH]c3nccc(-c4ccc(CNC(=O)c5cc(C(C)(C)C)on5)c(F)c4)c23)C1` [Example 308, 5-tert-butyl-N-{[2-fluoro-4-(3-{(3R)-3-[(prop-2-enoyl)amino]pyrrolidin-1-yl}-1H-pyrazolo[3,4-b]pyridin-4-yl)phenyl]methyl}-1,2-oxazole-3-carboxamide], the half-maximal inhibitory concentration (IC50) came to 47 nM in assay [1], 0.0594 nM in assay [2] and 35.6 nM in assay [3].
As for `CN(C)C/C=C/C(=O)N[C@@H]1CCN(c2n[nH]c3nccc(-c4ccc(CNC(=O)c5cc(C(C)(C)C)on5)c(F)c4)c23)C1` [Example 309, 5-tert-butyl-N-[(4-{3-[(3R)-3-{[(2E)-4-(dimethylamino)but-2-enoyl]amino}pyrrolidin-1-yl]-1H-pyrazolo[3,4-b]pyridin-4-yl}-2-fluorophenyl)methyl]-1,2-oxazole-3-carboxamide], the figures for the IC50 in assay [1], in assay [2] and in assay [3] were 1070 nM, 0.434 nM and 1010 nM, respectively.
Regarding `C=CC(=O)N1CCC(Nc2n[nH]c3nccc(-c4ccc(CNCc5noc(C(C)(C)C)n5)c(F)c4)c23)C1` (stereo not drawn) [Example 310, 1-[3-({4-[4-({[(5-tert-butyl-1,2,4-oxadiazol-3-yl)methyl]amino}methyl)-3-fluorophenyl]-1H-pyrazolo[3,4-b]pyridin-3-yl}amino)pyrrolidin-1-yl]prop-2-en-1-one], the IC50 in assay [1] turned out to be 3040 nM; in assay [2], 106 nM; in assay [3], 471 nM.
The corresponding values for `CC(C)(C)c1nc(C(=O)NCc2ccc(-c3ccnc4[nH]nc(N[C@@H]5CC[C@H](N)C5)c34)cc2F)no1` [Example 315, N-{[4-(3-{[(1R,3S)-3-aminocyclopentyl]amino}-1H-pyrazolo[3,4-b]pyridin-4-yl)-2-fluorophenyl]methyl}-5-tert-butyl-1,2,4-oxadiazole-3-carboxamide] are 2250 nM, 3.79 nM and 2580 nM.
The corresponding values for `C=CC(=O)N[C@H]1CCCC[C@@H]1Nc1n[nH]c2nccc(-c3ccc(CNC(=O)c4cc(C(C)(C)C)on4)c(F)c3)c12` [Example 318, 5-tert-butyl-N-({2-fluoro-4-[3-({(1S,2S)-2-[(prop-2-enoyl)amino]cyclohexyl}amino)-1H-pyrazolo[3,4-b]pyridin-4-yl]phenyl}methyl)-1,2-oxazole-3-carboxamide] are 8830 nM, 26.4 nM and 3030 nM.
Take `C=CC(=O)N[C@H]1CC[C@@H](Nc2n[nH]c3nccc(-c4ccc(CNC(=O)c5noc(C(C)(C)C)n5)c(F)c4)c23)C1` [Example 320, 5-tert-butyl-N-({2-fluoro-4-[3-({(1R,3S)-3-[(prop-2-enoyl)amino]cyclopentyl}amino)-1H-pyrazolo[3,4-b]pyridin-4-yl]phenyl}methyl)-1,2,4-oxadiazole-3-carboxamide]: the IC50 in assay [1] was found to be 58.5 nM; in assay [2], 0.0637 nM; in assay [3], 86.7 nM.
Take `C=CC(=O)N[C@@H]1CC[C@H](C)N(c2n[nH]c3nccc(-c4ccc(CNC(=O)c5cc(C(C)(C)C)on5)c(F)c4)c23)C1` [Example 323, 5-tert-butyl-N-{[2-fluoro-4-(3-{(2S,5R)-2-methyl-5-[(prop-2-enoyl)amino]piperidin-1-yl}-1H-pyrazolo[3,4-b]pyridin-4-yl)phenyl]methyl}-1,2-oxazole-3-carboxamide]: the values for the concentration for half-maximal inhibition (IC50) in assay [1], in assay [2] and in assay [3] were 734 nM, 7.4 nM and 445 nM, respectively.
The corresponding values for `C=CC(=O)N[C@@H]1CCN(c2n[nH]c3nccc(-c4ccc(CNC(=O)c5ccc(C(C)(C)O)cc5)c(F)c4)c23)C1` [Example 325, N-{[2-fluoro-4-(3-{(3R)-3-[(prop-2-enoyl)amino]pyrrolidin-1-yl}-1H-pyrazolo[3,4-b]pyridin-4-yl)phenyl]methyl}-4-(2-hydroxypropan-2-yl)benzamide] are 31.3 nM, 0.163 nM and 87.1 nM.
Turning to `CN(C)C(=O)N1CC[C@@H](Nc2n[nH]c3nccc(-c4ccc(CNC(=O)c5coc(C6CC6)n5)c(F)c4)c23)C1` [Example 329, 2-cyclopropyl-N-{[4-(3-{[(3R)-1-(dimethylcarbamoyl)pyrroli-din-3-yl]amino}-1H-pyrazolo[3,4-b]pyridin-4-yl)-2-fluorophenyl]methyl}-1,3-oxazole-4-carboxamide], the IC50 in assay [1] worked out at 5720 nM; in assay [2] it was 307 nM; in assay [3], 5900 nM.
For `CC(C)(C)c1noc(C(=O)NCc2ccc(-c3ccnc4[nH]nc(N5CCC(N)C5)c34)cc2F)n1` (stereo not drawn) [Example 330, N-({4-[3-(3-aminopyrrolidin-1-yl)-1H-pyrazolo[3,4-b]pyridin-4-yl]-2-fluorophenyl}methyl)-3-tert-butyl-1,2,4-oxadiazole-5-carboxamide], the IC50 in assay [1] is 1320 nM; in assay [2] it was 0.626 nM; in assay [3], 1230 nM.

The IC50 is the concentration needed to halve the response being measured.
